Data published in patent US20210024499A1, “OXIDIZED BIS(3-INDOLYL)METHANES AND USES THEREOF” (Sanford Burnam Prebys Medical Discovery Institute, priority 2018, published 2021).

Assays:
[1] = test system: non-transfected HEK293T cells; test: Apoptosis in non-transfected HEK293T cells (confocal microscopy); format: cell-based
From the text: The ligand-binding domain (LBD) of Nur77, Nur77-LBD, was transfected into HEK293T cells. Transfection of Nur77-LBD enhanced the apoptotic effect of Compound 1, with 36% of the transfected HEK293T cells undergoing apoptosis, while 4.5% of the non-transfected cells were apoptotic, as measured by confocal microscopy.

GFP-Nur77 = GFP-Nur77 (Homo sapiens, UniProt P22736); test: GFP-Nur77 localization in transfected HEK293T cells; format: cell-based; details: HEK293T cells transfected with GFP-Nur77, 0.5 μM
Chain of GFP-Nur77 (P22736 whole entry): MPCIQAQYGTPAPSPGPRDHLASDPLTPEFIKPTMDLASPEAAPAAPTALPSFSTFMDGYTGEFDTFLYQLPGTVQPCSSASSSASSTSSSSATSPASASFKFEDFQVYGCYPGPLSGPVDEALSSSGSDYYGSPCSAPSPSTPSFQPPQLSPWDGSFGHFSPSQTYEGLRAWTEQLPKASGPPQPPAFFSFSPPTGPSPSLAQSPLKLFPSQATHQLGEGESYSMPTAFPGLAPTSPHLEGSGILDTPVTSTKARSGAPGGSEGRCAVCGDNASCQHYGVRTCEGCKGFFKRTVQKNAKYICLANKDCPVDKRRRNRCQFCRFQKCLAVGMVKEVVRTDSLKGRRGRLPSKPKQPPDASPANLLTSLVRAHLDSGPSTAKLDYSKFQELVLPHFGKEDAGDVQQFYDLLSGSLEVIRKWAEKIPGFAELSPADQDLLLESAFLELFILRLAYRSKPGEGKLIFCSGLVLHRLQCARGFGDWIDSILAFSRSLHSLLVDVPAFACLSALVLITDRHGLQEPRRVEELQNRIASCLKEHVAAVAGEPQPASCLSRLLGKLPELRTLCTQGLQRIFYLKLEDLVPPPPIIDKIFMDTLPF
Procedure: Cells were fixed in 3.7% paraformaldehyde. For mitochondrial staining, cells were incubated with anti-Hsp60 goat immunoglobulin G (IgG) (Santa Cruz Biotechnology, Santa Cruz, Calif.), followed by anti-goat IgG conjugated with Cy3. The nuclei were visualized by DAPI staining. Fluorescent images were collected and analyzed by using a fluorescence microscopy or MRC-1024 MP laser-scanning confocal microscope (Bio-Rad, Hercules, Calif.).
To confirm the effect of Compound 1 on Nur77 cytoplasmic localization, HEK293T cells were transfected with GFP-Nur77 and subsequently treated with 0.5 μM Compound 1.

HCT116 cells = test: PARP cleavage assay (Western blotting), HCT116; format: cell-based; details: 6 hours
From the text: Compound 1a had no effect under the same conditions (FIG. 1A). […] Compound 1a, 28a, 47a, 48a, 73a, 39a, 70a, 103a, 89a and 88a had no effect under the same conditions (FIG. 3B-C).

MDA-MB-231 cells = test: Mitochondrial ROS, MDA-MB-231; format: cell-based; details: dose dependent, 6 hours
Procedure: (§1) Loss of mitochondrial membrane potential (Avm) represents one of the hallmarks of apoptosis. A JC-1 probe was employed to measure mitochondrial depolarization in cancer cells. MDA-MB-231 breast cancer cells were treated with different concentration of test compounds for 6 hours. JC-1 staining solution (5 μg/ml) was added at 37° C. for 20 min. After washing with PBS twice, mitochondrial membrane potentials were monitored by determining the relative amounts of dual emission from a multiple fluorescence reader. The fluorescence in cells was quantitatively analyzed by flow cytometry. Mitochondrial depolarization is depicted by an increase in the green/red fluorescence intensity ratio. ROS were monitored with the oxiadtion-senstive fluorescent probe 2′7′-dichlorodihydroflurescenin diacetate (DCF-DA).

MEF cells = test: Mitochondrial membrane potential (JC1), MEF; format: cell-based, mouse; details: 0.5 μM, 6 h
Procedure: as §1
(§2) In addition, Bcl-2^−/−MEF cells were more resistant than the parental MEF cells to Compound 1 in its induction of the mitochondrial membrane potential loss measured by JC1 staining and in the release of mitochondrial ROS (as performed in Example A-12).

Nur77−/−MEFs = test: Cell viability (MTT), Nur77-/- MEFs; format: cell-based, mouse; details: 6 hours, MTT (FIG. 8)
Procedure: (§3) Cell viability was analyzed by using a colorimetric 3-(4,5-dimethylthiazol-[…]2-yl)-2,5-diphenyletetrazolium Bromide (MTT) assay that determines mitochondrial dehydrogenase activities in the living cells with a colorimetric method. Cells treated with test compounds were incubated with MTT and their effect on the viability of the cells was assayed by the ability of treated cells to reduce the yellow tetrazolium dye MTT to its insoluble formazan, which has a purple color.
(§4) The apoptotic effect of Compound 1 was examined in mouse embryonic fibroblast (MEF) and MEF lacking Nur77 (Nur77^−/−MEF). […] Induction of PARP cleavage (as performed in Example A-7) in MEFs by Compound 1 at 0.5 μM was also attenuated in Nur77^−/−MEFs.

Nur77−/− HeLa cells [2] = test: Mitochondrial membrane potential (JC1), Nur77 knockout HeLa; format: cell-based; details: 1 μM, 6 h
Procedure: as §1
(§5) Furthermore, Nur77^−/−HeLa cells were more resistant than the parental HeLa cells to Compound 1 in its induction of the mitochondrial membrane potential loss measured by JC1 staining and in the release of mitochondrial ROS (as performed in Example A-12).

HeLa cells = test: DAPI staining for apoptosis, HeLa; format: cell-based
Procedure: In HeLa cells, about 60% apoptotic cells were detected when cells were treated with Compound 1 compared to less than 5% when cells were not treated with Compound 1. Apoptotic cells were counted in 200 cells.
We next examined whether Nur77 mitochondrial targeting induced by the combination of Compound 1/B12030 was apoptotic. HeLa cells were treated with either Compound 1 or BI2030 alone or in combination and apoptosis was examined by DAPI staining. About 7.2% or 9.1% of cells were apoptotic when treated with 0.5 μM Compound 1 or 1 μM BI2030, respectively, for 2 hours. […] Apoptotic cells were counted in 200 cells.

Nur77−/− HeLa cells [3] = test: Mitochondrial ROS, Nur77 knockout HeLa; format: cell-based
Procedure: as §1, §5

MEFs [4] = test: DAPI staining for apoptosis, MEFs; format: cell-based, mouse; details: 0.5 μM
From the text: The apoptotic effect of Compound 1 was also examined in mouse embryonic fibroblast (MEF) and MEF lacking Bcl-2 (Bcl-2^−/−MEF). […] Apoptotic cells were counted in 200 cells.

MEFs [5] = test: Cell viability (MTT), MEFs; format: cell-based, mouse; details: 6 hours, MTT (FIG. 8)
Procedure: as §3, §4

MDA-MB-231 cancer cells = test: Cell viability (MTT) assay, MDA-MB-231; format: cell-based; details: Homo sapiens; inhibiting the growth of MDA-MB-231 cancer cells, cell viability assay (Table 6)
Procedure: as §3, with “color. […]” for “color.”

Bcl-2−/−HeLa cells = test: Mitochondrial membrane potential (JC1), Bcl-2-/- cells of the MEF study; format: cell-based; details: Bcl-2−/−HeLa cells as printed, 0.5 μM, 6 h
Procedure: as §1, §2

IC50 (MDA-MB-231 cancer cells): < 500 nM
Structure (SMILES): FC(F)(F)c1ccc([C+](c2c[nH]c3ccccc23)c2c[nH]c3ccccc23)cc1 [Compound 1, Bis(1H-indol-3-yl)(4-(trifluoromethyl)phenyl)methylium methanesulfonate]
apoptotic cells [1]: 4.5%
GFP-Nur77 subcellular localization (GFP-Nur77): diffusely distributed in both the cytoplasm and nucleus
PARP cleavage (HCT116 cells; 0.5 μM, Western blotting): effectively induced PARP cleavage
concentration inducing PARP cleavage (dose dependent study) (HCT116 cells): submicromolar concentrations
intracellular mitochondrial reactive oxygen species (mito-ROS) (MDA-MB-231 cells): marked increase
JC1 green to red ratio (control 100%) (MEF cells): 400%
growth inhibitory effect relative to MEFs (Nur77−/−MEFs): significantly diminished
JC1 green to red ratio (Nur77−/− HeLa cells [2]): no significant change
apoptotic cells (DAPI staining), single agent (HeLa cells; 0.5 μM Compound 1 or 1 μM BI2030, 2 hours): About 7.2%
apoptotic cells (DAPI staining) (HeLa cells; 0.5 μM, 6 hours, counted in 200 cells): about 60%
apoptotic cells (DAPI staining), co-treated with Compound 1 and BI2030 (HeLa cells; co-treatment with BI2030, 2 hours): about 35.5%
increase in mito-ROS relative to regular HeLa cells (Nur77−/− HeLa cells [3]): smaller increase
cells with chromatin condensation and nuclear fragmentation (DAPI) (MEFs [4]): 40%
growth of MEFs (MEFs [5]): dose-dependently inhibited the growth of MEFs
JC1 green to red ratio (control 100%) (Bcl-2−/−HeLa cells): 150%
